Values joined by “and” are separate entries in the source; they are usually repeats but may differ in a detail not shown here. Equal entries are not always repeated.
Assays:
[1] = Weight change, survival and clinical status in the CT26 allograft model (Example 9); format: in vivo
Method: The health status and death of animals was monitored every day. Routine examination included observing the effects of tumor growth and drug treatment on the daily behavior of animals, such as behavioral activities, food and water intake (visual observation only), body weight change, appearance signs or other abnormal conditions. Based on the number of animals in each group, the death number and side effects of animals in the group were recorded.
The assay was carried out according to the administration scheme. During the assay, animal activities such as eating and drinking were observed daily, and animal weight was recorded 2˜3 times a week. […] The body weight of the three-drug combined group of MRTX1133+IN10018+TIGIT (5+25+3 mg/kg) group changed from 19.5 g on the day of group administration (Day 0) to 21.2 g on the 16th day, and the change rate of body weight was […].

Mouse lung cancer KPL = test: Proliferation of KPL cells, CCK8, MRTX1133 with or without IN10018 (Example 5); format: cell-based; conditions: 72 hours, MRTX1133 alone
Method: Mouse lung cancer KPL (Insitute of Biochemistry and Cell Biology) were cultured with RPMI-1640 (Shanghai Basalmedia, classification number: L210KJ, batch number: F210916)+10% FBS (Gibco, classification number: 10099-141c, batch number: 2158737cp) and passaged twice. When the cells were in good condition, the culture solution was placed in a 96-well plate with 3000 cells/well. After the cells were spread for 24 hours, a culture medium containing MRTX1133 (SuperLan Chemical Co., Ltd., classification number: P2621928-55-8, batch number: 131005) was added. 10 drug action concentrations were set, wherein the first concentration was 30 μM, which was serially diluted 5 times, and the last concentration was a control with a drug concentration of 0. Each drug concentration was set in triplicate. At the same time, another group of cells was established with the same drug concentration as the above method. The difference was that 10 μM IN10018 was added to each well. The drugs were mixed and the mixture was cultured in a 5% CO2 incubator at 37° C. for 72 hours.
After 72 hours of drug action, the cells were observed under a microscope, and 10 μl of CCK8 detection reagent (Cellorlab, classification number: CX001M, batch number: 2571100) was added to each well. […] Then the plate was read with a microplate reader OD450 ([…]).

[2] = system: mouse colon cancer CT26 cells allograft tumor; test: In vivo anti-tumor efficacy, BALB/c mouse subcutaneous allograft tumor model of CT26 cells (Example 9)
Method: Mouse colorectal cancer cell CT26 (from Nanjing Kebai Biotechnology Co., Ltd., article number: CBP60043) was maintained and passaged by InxMed (Nanjing) Co., Ltd. Cells were cultured in monolayer in vitro, and the culture conditions were RPMI-1640 medium with 10% fetal bovine serum and 37° C. 5% CO2 incubator. Trypsin-EDTA was used for routine digestion and passage two or three times a week. When the cells were in exponential growth period and the saturation reached 80%-90%, the cells were collected, counted and inoculated.
0.1 mL of cell suspension containing 3×10^5 cells was subcutaneously inoculated on the right back of each mouse. When the tumor volume reached about ˜57 mm^3 (13th day after cell inoculation), mice were randomly divided into groups according to the tumor volume and administered.
The assay index was to investigate whether the tumor growth is inhibited, delayed or cured. The diameter of tumor was measured with vernier caliper, 2˜3 times a week. The formula for calculating the tumor volume is: V=0.5×a×b^2, where a and b represent the long and short diameters of the tumor respectively.
The anti-tumor effect of the compound was evaluated by TGI (%), which reflected the tumor growth inhibition rate. According to the tumor volume on the first day after grouping, the tumor growth inhibition rate TGI (%) was calculated according to the following formula: […]
Statistical analysis was based on the tumor volume at the end of the assay and analyzed by Prism Graphpad software. The comparison between multiple groups was analyzed by Two-way ANOVA and Fisher's LSD test. P<0.05 is considered to have significant difference.

[3] = system: Mouse colon cancer CT26 cells; test: Induction of immunogenic cell death targets by Crizotinib and IN10018 in CT26 cells (Example 7); format: cell-based; conditions: CT26, 48 hours; IN10018 5 μM, Crizotinib 3 μM
Method: CT26 cells were cultured in monolayer in vitro, and the culture conditions were: RPMI-1640 medium with 10% fetal bovine serum, 37° C. and 5% CO2. Trypsin was used for routine digestion and passage treatment two or three times a week. When the cells were in exponential growth period and the adherent confluence reached 80%-90%, the cells were collected and plated.
CT26 cells were digested with trypsin, then collected and counted. According to the counting results, the cells were diluted with RPMI-1640+10% FBS, and the dilution concentration was 50,000 cells per ml. Then, the cells were plated on 24-well culture plates, and 1 ml of cell suspension (50,000 cells) was laid in each well. After plating, the cells were cultured in 37° C. and 5% CO2 incubator. […]
After the cells were washed twice with flow buffer (DPBS+2% FBS), the cells in each group were divided into two parts on average, one of which was added with 0.5 μl of AF647 anti-Calreticulin antibody in each well, then mixed well, and incubated in the dark for 20 minutes at 4° C. […] The cells were cultured at room temperature in the dark for 15 minutes, and then analyzed by flow cytometry.
Data analysis: After the assay, the cell positive rate was analyzed by Flowjo(V10) software.

| SMILES | Weight on Day 0 ([1]; Day 0, at grouping, mean ± SD) | Weight change rate (%) ([1]; Day 16 vs Day 0) | Weight on Day 14/16 ([1]; administration groups: 16th day after group administration, mean ± SD) | Animal survival ([1]; number of animals alive on day 0/number alive on day 16) | IC50 (Mouse lung cancer KPL) | Tumor volume on Day 0 ([2]; Day 0, at grouping, mean ± SD) | TGI (%) ([2]; Day 14, MRTX1133 5 mg/kg IP QD, IN10018 25 mg/kg PO QD, TIGIT 3 mg/kg IP BIW) | Tumor volume on Day 14 ([2]; Day 14 after group administration, MRTX1133 5 mg/kg IP QD, IN10018 25 mg/kg PO QD, TIGIT 3 mg/kg IP BIW, mean ± SD) | Tumor volume on Day 16 ([2]; Day 16 after group administration, MRTX1133 5 mg/kg IP QD, IN10018 25 mg/kg PO QD, TIGIT 3 mg/kg IP BIW, mean ± SD) | cell state under a microscope (cell death; cell viability) [3] |
| --- | --- | --- | --- | --- | --- | --- | --- | --- | --- | --- |
| C#Cc1c(F)ccc2cc(O)cc(-c3ncc4c(N5CC6CCC(C5)N6)nc(OC[C@@]56CCCN5C[C@H](F)C6)nc4c3F)c12 [MRTX1133] | 19.4 g and 19.4 ± 0.8 g | 15.1% | 22.3 g and 22.3 ± 0.8 g | 6/6 | 1.76 µM | 57.4 ± 10.8 mm^3 | 63.2% | 1067.8±302.1 mm^3 | 1672.1±548.1 mm^3 |  |
| COc1cc(C(=O)NC2CCN(C)CC2)c(F)cc1Nc1ncc(C(F)(F)F)c(Oc2cccc3c2C(=O)N(C)C3)n1 [IN10018] |  |  |  |  |  |  |  |  |  | better |

— patent US20240285627A1, “DRUG COMBINATION OF FAK INHIBITOR AND IMMUNOGENIC CELL DEATH INDUCER AND USE THEREOF” (INXMED (NANJING) CO., LTD., priority 2022, published 2024)
